Test results published in patent publication US8912144B2, “Method for treating stroke via administration of NEP1-40 and inosine” (Children's Medical Center Corporation, priority 2003, dated 2014).

Test system: corticospinal neurons (CSNs/CSMNs)
Assay: Laser-capture microdissection and Illumina microarray gene expression in corticospinal neurons contralateral to stroke
Type: in vivo, rat
Experimental: In a separate group of animals (n=20), layer V pyramidal cells of the sensorimotor cortex were retrogradely labeled by injecting Alexa-Fluor-488-conjugated cholera toxin B subunit (CTB; 300 U/μl in sterile saline) into the cervical spinal cord. For this, animals were anesthetized with a combination of ketamine and Domitor (medetomidine) and a laminectomy was performed at the cervical level of the spinal cord (C2-C4). CTB was stereotaxically delivered into four sites lateral to the corticospinal tract. Injections (1.3 μl) were spaced 1 mm apart on the rostro-caudal axis, and were made 0.5 mm to the left and right of the midline. After allowing two weeks for transport of the tracer, we performed either sham surgery with no treatment (n=6) or stroke surgery combined with saline (n=3) or inosine (n=4) treatment as described above. Seven days later, animals were decapitated under transient gas anesthesia, brains were removed and rinsed in cold RPMI medium, and a tissue block containing the sensorimotor cortex was dissected and placed in OCT Tissue Tek Medium (Sakura Finetek USA Inc., CA) on dry ice within five minutes of death. Ten μm sections were cut onto precleaned Gold Seal RITE-ON glass slides (Gold Seal Prod-ucts, Portsmouth, N.H.), placed on dry ice, and rapidly stored at −80° C.
Slide-mounted sections were thawed and dehydrated in RNAse-free ethanol gradients and xylene. Retro-gradely labeled, fluorescent cortical pyramidal cells in the undamaged hemisphere were individually captured using the Arcturus VERITAS system. ≧500 cells were collected from each animal and stored in Arcturus extraction buffer at −80° C. Total RNA was extracted from cells using the Micro-to-Midi TotalRNA Purification System (Invitrogen, Carlsbad Calif.) and double-amplified using the TargetAmp 2-Round Aminoallyl-aRNA Amplification kit 1.0 (Epicentre, Madison, Wis.). Amplified RNA was checked for average fragment length using the Agilent RNA 6000 Nano LabChip kit (Agilent Technologies, Santa Clara, Calif.) and then biotinylated and hybridized (1 μg) on Illumina RatRef-12 Expression BeadChip arrays (Illumina, San Diego Calif.), querying the expression of >22,000 RefSeq-curated rat transcripts. Results were obtained from a total of 15 samples representing 6 untreated controls, 4 animals with stroke treated with saline and 5 animals with stroke treated with inosine. Slides were processed and scanned with Illumina BeadStation platform according to the manufacturer protocol.
Raw data was analyzed using Bioconductor packages (www.bioconductor.org, (Gentleman et al., 2004)). Low level quality-control analysis was performed using inter-array Pearson correlation and clustering based on variance. Two arrays (1 saline and 1 inosine-treated) were outliers and were excluded from the analysis. Data was normalized using quantile normalization, and analysis of differential expression was performed using a linear model fitting (LIMMA package, (Smyth, 2005). Differentially expressed genes were classified according to gene ontology using Bioconductor packages and online tools (DAVID, http://david.abcc.ncifcrf.gov/). Pathway analysis was carried out using Ingenuity Pathway Analysis (Ingenuity Systems, www.ingenuity.com).

OC[C@H]1O[C@@H](n2cnc3c(O)ncnc32)[C@H](O)[C@@H]1O [inosine]
Signal Intensity, Sfrs10 (ILMN_48507, inosine after stroke): 2745
Fold-Induction Stroke, ino vs. cntrl, Scarb2 (ILMN_48587): 0.71
Signal Intensity, Scarb2 (ILMN_48587, inosine after stroke): 569
Fold-Induction Stroke, ino vs. cntrl, Sec6l1 (ILMN_48688): 0.84
Signal Intensity, Sec6l1 (ILMN_48688, inosine after stroke): 587
Fold-Induction Stroke, ino vs. cntrl, Ube4a (ILMN_49300): 0.58
Signal Intensity, Ube4a (ILMN_49300, inosine after stroke): 1509
Fold-Induction Stroke, ino vs. cntrl, LOC501195 (ILMN_49366): 0.77
Signal Intensity, LOC501195 (ILMN_49366, inosine after stroke): 1460
Fold-Induction Stroke, ino vs. cntrl, Kcnc2 (ILMN_49569): 0.73
Signal Intensity, Kcnc2 (ILMN_49569, inosine after stroke): 4642
Fold-Induction Stroke, ino vs. cntrl, Arfrp1 (ILMN_49739): 0.93
Signal Intensity, Arfrp1 (ILMN_49739, inosine after stroke): 1014
Fold-Induction Stroke, ino vs. cntrl, Dmp1 (ILMN_49819): 0.38
Signal Intensity, Dmp1 (ILMN_49819, inosine after stroke): 267
Fold-Induction Stroke, ino vs. cntrl, Ralbp1 (ILMN_49884): 0.75
Signal Intensity, Ralbp1 (ILMN_49884, inosine after stroke): 1553
Fold-Induction Stroke, ino vs. cntrl, Snx2 (ILMN_50221): 0.66
Signal Intensity, Snx2 (ILMN_50221, inosine after stroke): 1681
Fold-Induction Stroke, ino vs. cntrl, Rpn2 (ILMN_50467): 0.71
Signal Intensity, Rpn2 (ILMN_50467, inosine after stroke): 835
Fold-Induction Stroke, ino vs. cntrl, RAMP4 (ILMN_50573): 0.75
Signal Intensity, RAMP4 (ILMN_50573, inosine after stroke): 544
Fold-Induction Stroke, ino vs. cntrl, Cdc37l (ILMN_50686): 0.83
Signal Intensity, Cdc37l (ILMN_50686, inosine after stroke): 625
Fold-Induction Stroke, ino vs. cntrl, LOC498489 (ILMN_50922): 0.49
Signal Intensity, LOC498489 (ILMN_50922, inosine after stroke): 603
Fold-Induction Stroke, ino vs. cntrl, Ube2m (ILMN_50967): 0.59
Signal Intensity, Ube2m (ILMN_50967, inosine after stroke): 332
Fold-Induction Stroke, ino vs. cntrl, LOC499428 (ILMN_51108): 0.50
Signal Intensity, LOC499428 (ILMN_51108, inosine after stroke): 678
Fold-Induction, complement cascade gene C3 (ILMN_51249, LCM-captured CSMNs contralateral a stroke): 2.17 fold
Fold-induction CSMNs: LOC305633, (P) Antxr2 protein (ILMN_51277, over and above inosine's effect of decreasing stroke-induced changes): 3.13 fold
Fold-Induction Stroke, ino vs. cntrl, Ik (ILMN_51588): 0.83
Signal Intensity, Ik (ILMN_51588, inosine after stroke): 417
Fold-Induction Stroke, ino vs. cntrl, LOC499767 (ILMN_51716): 0.64
Signal Intensity, LOC499767 (ILMN_51716, inosine after stroke): 1723
Fold-Induction Stroke, ino vs. cntrl, LOC497777 (ILMN_51717): 0.58
Signal Intensity, LOC497777 (ILMN_51717, inosine after stroke): 577
Fold-Induction Stroke, ino vs. cntrl, Tspan3 (ILMN_51868): 0.47
Signal Intensity, Tspan3 (ILMN_51868, inosine after stroke): 3842
Fold-Induction Stroke, ino vs. cntrl, LOC360807 (ILMN_51947): 0.50
Signal Intensity, LOC360807 (ILMN_51947, inosine after stroke): 689
Fold-Induction Stroke, ino vs. cntrl, LOC498931 (ILMN_51968): 0.54
Signal Intensity, LOC498931 (ILMN_51968, inosine after stroke): 554
Fold-Induction Stroke, ino vs. cntrl, LOC501619 (ILMN_51972): 0.59
Signal Intensity, LOC501619 (ILMN_51972, inosine after stroke): 416
Fold-Induction Stroke, ino vs. cntrl, Scd2 (ILMN_52257): 0.42
Signal Intensity, Scd2 (ILMN_52257, inosine after stroke): 3009
Fold-Induction Stroke, ino vs. cntrl, LOC317508 (ILMN_52577): 0.58
Signal Intensity, LOC317508 (ILMN_52577, inosine after stroke): 493
Fold-Induction Stroke, ino vs. cntrl, Nedd9 (ILMN_52827): 0.73
Signal Intensity, Nedd9 (ILMN_52827, inosine after stroke): 550
Fold-Induction Stroke, ino vs. cntrl, Atp6v1h (ILMN_52968): 0.62
Signal Intensity, Atp6v1h (ILMN_52968, inosine after stroke): 525
Fold-Induction Stroke, ino vs. cntrl, MGC94339 (ILMN_52985): 0.70
Signal Intensity, MGC94339 (ILMN_52985, inosine after stroke): 547
Fold-Induction Stroke, ino vs. cntrl, Ube2e3 (ILMN_53046): 0.61
Signal Intensity, Ube2e3 (ILMN_53046, inosine after stroke): 434
Fold-Induction Stroke, ino vs. cntrl, Arpc3 (ILMN_53076): 0.68
Signal Intensity, Arpc3 (ILMN_53076, inosine after stroke): 423
Fold-induction CSMNs: Irf1 (ILMN_53085, over and above inosine's effect of decreasing stroke-induced changes): 1.83 fold
Fold-Induction Stroke, ino vs. cntrl, LOC309362 (ILMN_53195): 1.02
Signal Intensity, LOC309362 (ILMN_53195, inosine after stroke): 498
Fold-Induction Stroke, ino vs. cntrl, Hat1 (ILMN_53256): 0.69
Signal Intensity, Hat1 (ILMN_53256, inosine after stroke): 362
Fold-Induction Stroke, ino vs. cntrl, LOC499978 (ILMN_53292): 0.72
Signal Intensity, LOC499978 (ILMN_53292, inosine after stroke): 970
Fold-induction CSMNs: LOC498335, (P) Small inducible cytokine B13 precursor (CXCL13) (ILMN_53325, over and above inosine's effect of decreasing stroke-induced changes): 11.42 fold
Fold-induction CSMNs: Mt1a (Metallothionein) (ILMN_53575, over and above inosine's effect of decreasing stroke-induced changes): 2.69 fold
Fold-Induction Stroke, ino vs. cntrl, Cnbp1 (ILMN_53694): 0.76
Signal Intensity, Cnbp1 (ILMN_53694, inosine after stroke): 4491
Fold-Induction Stroke, ino vs. cntrl, MGC94053 (ILMN_53763): 0.59
